Experimental data from ChEMBL document CHEMBL1201862, “PubChem BioAssay data set” (2004).
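In this assay, cells in 96-well plates receive the compound at five concentrations for 48 hours. Endpoints are linearly interpolated between the surrounding concentrations. The concentration for 50% growth inhibition is given as GI50.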 Active and inactive are the calls of the source. Rule as the data show it: active = GI50 up to about 1.1 µM and inactive = higher.

Assays:
Test in all cases: inhibition of tumour cell growth, NCI panel, 48 h
MCF7 = tested on: MCF7
BT-549 = tested on: BT-549
T47D = tested on: T47D
HOP-18 = tested on: HOP-18
XF498 = tested on: XF498
KM-20L2 = tested on: KM-20L2
M19-MEL = tested on: M19-MEL
SNB-78 = tested on: SNB-78

CN(CCNC(=O)c1c[nH]c2c1Cc1ccccc1-2)CCNC(=O)c1c[nH]c2c1Cc1ccccc1-2 was tested. Which GI50 (MCF7) did it give?
Its GI50 is 22.9 µM (inactive).

And the GI50 (BT-549)?
Its GI50 is 36.6 µM (inactive).

Which GI50 (T47D) does the source give for O=C1c2ccccc2C(=O)c2c(Nc3cc4c5c(ccc6c7ccc8c9c(cc(Nc%10cccc%11c%10C(=O)c%10ccccc%10C%11=O)c(c3c56)c97)-c3ccccc3C8=O)C(=O)c3ccccc3-4)cccc21 here?
The GI50 was > 100 µM (inactive).

What about the GI50 (MCF7) of the same molecule?
The GI50 was 83.2 µM (inactive).

And the GI50 (BT-549)?
Its GI50 is 46.3 µM (inactive).

C=C1CC(Cn2cc(C)c(=O)[nH]c2=O)(c2ccc(-c3ccccc3)cc2)OC1=O (configuration not stated) was tested. Which GI50 (T47D) did it give?
The GI50 was 1.99 µM (inactive).

And the GI50 (MCF7)?
Its GI50 is 1.51 µM (inactive).

What about the GI50 (BT-549) of the same molecule?
The GI50 was 1.46 µM (inactive).

What does the source list for NCCN/C(=N\c1ccccc1)Nc1ccccc1?
GI50 (T47D): > 10 µM (inactive); GI50 (MCF7): > 100 µM (inactive); GI50 (BT-549): > 100 µM (inactive)

Which results are given for NS(=O)(=O)c1ccc(NNc2c3ccccc3nc3c(C(=O)Nc4ccc(S(=O)(=O)Nc5ncccn5)cc4)cccc23)cc1?
GI50 (T47D): > 25 µM (inactive); GI50 (MCF7): > 25 µM (inactive); GI50 (BT-549): > 25 µM (inactive)

CC1CCC2(CC1)NN=c1s/c(=C\c3ccc(O)cc3)c(=O)n1N2 (configuration not stated) was tested. Which GI50 (HOP-18) did it give?
The GI50 was > 100 µM (inactive).

And the GI50 (XF498)?
The GI50 was > 100 µM (inactive).

And the GI50 (KM-20L2)?
The GI50 was > 100 µM (inactive).

And the GI50 (M19-MEL)?
Its GI50 is > 100 µM (inactive).

And the GI50 (SNB-78)?
The GI50 was > 100 µM (inactive).

Which GI50 (HOP-18) does the source give for O=C(c1ccccc1)c1nnn(Cc2cccc(Cl)c2)c1C(=O)c1ccccc1 here?
Its GI50 is > 100 µM (inactive).

And the GI50 (XF498)?
The GI50 was > 100 µM (inactive).

And the GI50 (KM-20L2)?
The GI50 was > 100 µM (inactive).

What about the GI50 (M19-MEL) of the same molecule?
Its GI50 is > 100 µM (inactive).

And the GI50 (SNB-78)?
The GI50 was > 100 µM (inactive).

What does the source list for CC1(C)OC2C(CO)OC(N/C(=N/C#N)Oc3ccccc3)C2O1 (configuration not stated)?
GI50 (XF498): > 100 µM (inactive); GI50 (KM-20L2): > 100 µM (inactive); GI50 (M19-MEL): > 100 µM (inactive); GI50 (SNB-78): > 100 µM (inactive)

For CO[C@H]1C=CO[C@@]2(C)Oc3c(C)c(O)c4c(O)c(c(CN5CCN(C)CC5)c(O)c4c3C2=O)NC(=O)/C(C)=C\C=C[C@H](C)[C@H](O)C(C)[C@@H](O)C(C)[C@H](OC(C)=O)[C@@H]1C (some centres not stated), which GI50 (T47D) is on record?
The GI50 was 26.7 µM (inactive).

What about the GI50 (MCF7) of the same molecule?
Its GI50 is 11.1 µM (inactive).

And the GI50 (BT-549)?
The GI50 was 45.9 µM (inactive).

For CNC(=S)N(C)C(=S)Nn1c(=O)c(C)nn(C)c1=S, which GI50 (HOP-18) is on record?
Its GI50 is > 100 µM (inactive).

And the GI50 (KM-20L2)?
Its GI50 is > 100 µM (inactive).

What about the GI50 (M19-MEL) of the same molecule?
Its GI50 is > 100 µM (inactive).

What about the GI50 (SNB-78) of the same molecule?
Its GI50 is > 100 µM (inactive).

What does the source list for Cn1c2ccccc2n2c(=O)c3cc([N+](=O)[O-])ccc3c(C#N)c12?
GI50 (T47D): > 100 µM (inactive); GI50 (MCF7): > 100 µM (inactive); GI50 (BT-549): > 100 µM (inactive)

Which results are given for O=c1n(C2CCCCC2)c(=C(Cl)Cl)c(=C(Cl)Cl)n1C1CCCCC1?
GI50 (HOP-18): > 100 µM (inactive); GI50 (XF498): > 100 µM (inactive); GI50 (KM-20L2): > 100 µM (inactive); GI50 (M19-MEL): > 100 µM (inactive); GI50 (SNB-78): 85.1 µM (inactive)

Which results are given for CCC1CN(C(=O)c2ccccc2)C(Cc2c[nH]c3ccccc23)C(=O)C1CC(=O)OC (configuration not stated)?
GI50 (T47D): > 100 µM (inactive); GI50 (MCF7): 57.5 µM (inactive); GI50 (BT-549): > 100 µM (inactive)

COc1ccccc1CNCc1nc2ccccc2[nH]1 was tested. Which GI50 (T47D) did it give?
Its GI50 is > 100 µM (inactive).

And the GI50 (MCF7)?
The GI50 was > 100 µM (inactive).

What about the GI50 (BT-549) of the same molecule?
Its GI50 is > 100 µM (inactive).

For [O-]c1c2c(nn1-c1ccc(F)cc1)c1ccccc1c[n+]2Cc1ccccc1, which GI50 (XF498) is on record?
The GI50 was 19.2 µM (inactive).

What about the GI50 (KM-20L2) of the same molecule?
The GI50 was 11.6 µM (inactive).

What about the GI50 (SNB-78) of the same molecule?
The GI50 was 1.96 µM (inactive).

Which GI50 (HOP-18) does the source give for COc1ccccc1NS(=O)(=O)c1cc(C(C)(C)C)ccc1OCCOc1ccc(C(C)(C)C)cc1S(=O)(=O)Nc1ccccc1OC here?
The GI50 was > 100 µM (inactive).

What about the GI50 (M19-MEL) of the same molecule?
The GI50 was > 100 µM (inactive).

What about the GI50 (SNB-78) of the same molecule?
The GI50 was > 100 µM (inactive).

C=C1CC2CCCC12C=O (configuration not stated) was tested. Which GI50 (T47D) did it give?
The GI50 was > 10 µM (inactive).

What about the GI50 (MCF7) of the same molecule?
Its GI50 is > 10 µM (inactive).

And the GI50 (BT-549)?
Its GI50 is > 10 µM (inactive).

Which results are given for Cc1ccc(S(=O)(=O)N(CCN)c2cc3c4c(c2)Oc2cccc5c2C4c2c(cccc2O3)O5)cc1?
GI50 (MCF7): 20.7 µM (inactive); GI50 (BT-549): 47.2 µM (inactive)

With C=C(Br)CN(C#N)CC(=C)Br as the molecule, how does the GI50 (T47D) read?
The GI50 was > 100 µM (inactive).

And the GI50 (MCF7)?
Its GI50 is > 100 µM (inactive).

How did the GI50 (T47D) turn out when Oc1ccc2ccccc2c1Cc1c(O)ccc2ccccc12 was run?
Its GI50 is 20.3 µM (inactive).

And the GI50 (MCF7)?
The GI50 was 21.8 µM (inactive).

What about the GI50 (BT-549) of the same molecule?
Its GI50 is 16.9 µM (inactive).

How did the GI50 (T47D) turn out when Brc1ccc2c([C@H]3CN[C@@H](c4c[nH]c5cc(Br)ccc45)CN3)c[nH]c2c1 was run?
Its GI50 is 5.47 µM (inactive).

And the GI50 (MCF7)?
The GI50 was 1.9 µM (inactive).

What about the GI50 (BT-549) of the same molecule?
The GI50 was 12.3 µM (inactive).

What does the source list for CCCC1CCC(=C2C(=O)CCC2=O)O1 (configuration not stated)?
GI50 (T47D): > 100 µM (inactive); GI50 (MCF7): > 100 µM (inactive); GI50 (BT-549): > 100 µM (inactive)

With Cn1c(SCc2c[nH]c3ccccc23)nnc1-c1ccc(Cl)cc1Cl as the molecule, how does the GI50 (T47D) read?
The GI50 was 12.7 µM (inactive).

What about the GI50 (MCF7) of the same molecule?
Its GI50 is 22.7 µM (inactive).

What about the GI50 (BT-549) of the same molecule?
The GI50 was 18.3 µM (inactive).

CCSC(=O)N1c2ccc(OC)cc2C=CC1C#N (configuration not stated) was tested. Which GI50 (T47D) did it give?
The GI50 was 228 µM (inactive).

And the GI50 (MCF7)?
The GI50 was 0.00883 µM (active).

And the GI50 (XF498)?
The GI50 was < 0.01 µM (active).

And the GI50 (KM-20L2)?
The GI50 was < 0.01 µM (active).

What about the GI50 (M19-MEL) of the same molecule?
The GI50 was < 0.01 µM (active).

And the GI50 (BT-549)?
The GI50 was < 0.01 µM (active).

What about the GI50 (SNB-78) of the same molecule?
Its GI50 is 51.8 µM (inactive).

With CC(=O)C(=C(I)I)c1ccccc1 as the molecule, how does the GI50 (T47D) read?
Its GI50 is 20.4 µM (inactive).

What about the GI50 (MCF7) of the same molecule?
The GI50 was 27.6 µM (inactive).

What does the source list for COc1ccc2c(c1)C(=O)CC1c3cnccc3C(=O)N21 (configuration not stated)?
GI50 (T47D): > 100 µM (inactive); GI50 (MCF7): > 100 µM (inactive); GI50 (BT-549): > 100 µM (inactive)

For C[O+]=C1C=CC(=C2SC(c3ccccc3)(c3ccccc3)c3ccccc32)C=C1.[O-][Cl+3]([O-])([O-])[O-], which GI50 (T47D) is on record?
The GI50 was 20.8 µM (inactive).

And the GI50 (MCF7)?
Its GI50 is 25.4 µM (inactive).

What about the GI50 (BT-549) of the same molecule?
The GI50 was 24.7 µM (inactive).

Which GI50 (T47D) does the source give for COc1cc2c3c(cc(Cl)nc3c1OC)C(=O)C(=O)N2 here?
Its GI50 is 3.68 µM (inactive).

What about the GI50 (MCF7) of the same molecule?
The GI50 was 2.05 µM (inactive).

And the GI50 (BT-549)?
Its GI50 is 16.2 µM (inactive).
